Reference: the supplement of paper PMC10307832

What follows are cell lines tested with CC1(C)CCC(CN2CCN(c3ccc(C(=O)NS(=O)(=O)c4ccc(NCC5CCOCC5)c([N+](=O)[O-])c4)c(Oc4cnc5[nH]ccc5c4)c3)CC2)=C(c2ccc(Cl)cc2)C1 [Venetoclax] + C[C@]1(O)C[C@@H](c2nc(-c3ccc4ccc(-c5ccccc5)nc4c3)c3c(N)nccn32)C1 [Linsitinib] (partner 1 µM) (assay: relative viability (nuclei count vs DMSO), 5 days (fraction); higher = more cells survive). Conditions: first compound 0.01 µM.
Summary of the method: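 Cells from lung cancer lines were seeded into 1536-well plates and, one day later, dosed by pin tool. Treatments were either a single drug or a fixed dose of an anchor drug with five library-drug doses (not always all listed) in √10 steps. After 5 days, nuclei were stained in a one-step fixation (final 0.05% Triton X-100, 1% formaldehyde, 1 ug/ml Hoechst) and counted on 4× images, and relative viability is the treated-to-vehicle nuclei ratio, as the median of duplicate plates.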
Work on HCC-44 yielded a relative viability of 0.613.
For NCI-H1734, the relative viability was 0.894.
With NCI-H650 the relative viability was 0.912.
Cell Line LK-2 has a relative viability of 0.727.
In the case of NCI-H2228, the relative viability is reported as 0.717.
SK-MES-1 showed a relative viability of 0.995.
Cell Line HARA has a relative viability of 0.833.
Cell Line COR-L23 has a relative viability of 0.864.
In the case of COR-L 105, the relative viability is reported as 0.934.
In the case of LC-2-ad, the relative viability is reported as 0.807.
In the case of IA-LM, the relative viability is reported as 0.51.
With A549 the relative viability was 0.586.
NCI-H1299 showed a relative viability of 0.987.
Work on NCI-H1395 yielded a relative viability of 0.951.
NCI-H1703 was tested, and the relative viability was 0.549.
NCI-H441 was tested, and the relative viability was 0.445.
With NCI-H1793 the relative viability was 0.905.
In the case of LCLC-103H, the relative viability is reported as 1.1.

Same assay, conditions: first compound 0.03162 µM
PC-14 gave a relative viability of 0.993.
NCI-H1666 gave a relative viability of 0.864.
For EBC-1, the relative viability was 0.963.
NCI-H1755 gave a relative viability of 1.
Work on NCI-H2023 yielded a relative viability of 0.636.
With EPLC-272H the relative viability was 1.31.
Cell Line LCLC-97TM1 has a relative viability of 0.197.
PC-3 [JPC-3] was tested, and the relative viability was 1.01.
Cell Line LOU-NH91 has a relative viability of 0.986.
With NCI-H647 the relative viability was 1.15.
NCI-H23 showed a relative viability of 0.648.
In the case of EMC-BAC-2, the relative viability is reported as 0.834.
With NCI-H2126 the relative viability was 0.733.
Cell Line Calu-6 has a relative viability of 0.943.
With HCC-44 the relative viability was 0.728.
NCI-H1734 was tested, and the relative viability was 0.911.
In the case of NCI-H650, the relative viability is reported as 0.843.
LK-2 showed a relative viability of 0.621.
For NCI-H2228, the relative viability was 0.754.
SK-MES-1 was tested, and the relative viability was 1.09.
For HARA, the relative viability was 0.93.
Work on COR-L23 yielded a relative viability of 0.953.
In the case of COR-L 105, the relative viability is reported as 0.943.
LC-2-ad gave a relative viability of 0.904.
In the case of IA-LM, the relative viability is reported as 0.605.
In the case of A549, the relative viability is reported as 0.597.
In the case of NCI-H1299, the relative viability is reported as 1.02.
NCI-H1395 was tested, and the relative viability was 0.996.
With NCI-H1703 the relative viability was 0.652.
For NCI-H441, the relative viability was 0.716.
With NCI-H1793 the relative viability was 1.04.
With LCLC-103H the relative viability was 1.24.

Same assay, conditions: first compound 0.1 µM
PC-14 showed a relative viability of 1.04.
In the case of NCI-H1666, the relative viability is reported as 0.731.
EBC-1 was tested, and the relative viability was 0.912.
Cell Line NCI-H1755 has a relative viability of 0.848.
NCI-H2023 gave a relative viability of 0.657.
With EPLC-272H the relative viability was 1.06.
In the case of LCLC-97TM1, the relative viability is reported as 0.158.
PC-3 [JPC-3] was tested, and the relative viability was 0.977.
LOU-NH91 gave a relative viability of 0.882.
NCI-H23 showed a relative viability of 0.527.
With EMC-BAC-2 the relative viability was 0.816.
NCI-H2126 was tested, and the relative viability was 0.695.
In the case of Calu-6, the relative viability is reported as 1.01.
In the case of HCC-44, the relative viability is reported as 0.67.
In the case of NCI-H1734, the relative viability is reported as 0.803.
LK-2 showed a relative viability of 0.516.
NCI-H2228 showed a relative viability of 0.631.
SK-MES-1 gave a relative viability of 1.07.
HARA showed a relative viability of 0.911.
Work on COR-L23 yielded a relative viability of 0.879.
Cell Line COR-L 105 has a relative viability of 0.834.
LC-2-ad showed a relative viability of 0.785.
IA-LM was tested, and the relative viability was 0.71.
A549 showed a relative viability of 0.524.
In the case of NCI-H1299, the relative viability is reported as 1.06.
